We go through 1 molecule from US20040009208A1, “Safe and effective nutritional supplement formulations and associated regimens adapted to prevent and/or treat targeted diseases or medical or health conditions, and related methods” (Vital Living, Inc., priority 2002, published 2004).

Assay [1] deals with triglycerides. The note with it: low doses (500-1000 mg/day); cited from earlier work.
In the next assay the test system is homocysteine. Kind of assay: Projected benefit on homocysteine level (Table 5). The class given is in vivo, patients. Also noted: key: “NC” indicating no change. Conditions: expected benefit, class symbol. The text has this:
(§1) The particular CVD-specific nutraceuticals and regimens herein disclosed were also designed to achieve a measurable benefit on lipid levels equivalent to those provided by many popular pharmaceutical drug therapies. The expected range of benefits (“NC” indicating no change) is projected as indicated below in Table 5. Given that all of the nutritional supplement ingredients used in the CVD-specific nutraceutical herein disclosed operate according to independent mechanisms, the cumulative effective on LDL cholesterol, HDL cholesterol, triglycerides and homocysteine levels would be additive and would not counteract each other or interfere with common CVD prescription pharmaceutical treatments.

Assay [2] has as its system HDL cholesterol. Kind of assay: Projected benefit on HDL cholesterol level (Table 5). The class given is in vivo, patients. The note with it: expected range of benefits, CVD-specific nutraceutical regimen.
Source text: as §1

For assay [3], the system named is triglycerides. Kind of assay: Projected benefit on triglyceride level (Table 5). The class given is in vivo, patients. Conditions: expected range of benefits, CVD-specific nutraceutical regimen.
Source text: as §1

Assay [4] has as its system HDL cholesterol. The note with it: low doses (500-1000 mg/day); cited from earlier work.
Assay [5] concerns LDL cholesterol. Conditions: higher doses (1000-3000 mg/day); cited from earlier work.
The subject of assay [6] is LDL cholesterol. Briefly: Projected benefit on LDL cholesterol level (Table 5). In kind it is in vivo, patients. More on the design: key: “NC” indicating no change. The note with it: expected benefit, class symbol.
Source text: as §1

Molecules are shown by their SMILES.

Take `O=C(O)c1cccnc1` [Niacin]: in the assay with triglycerides [1], the effect on triglycerides result was “lower triglycerides”. The HOMOCYSTEINE result in the assay with homocysteine is “NC”. Besides, the HDL increase in the assay with HDL cholesterol [2] was 5-10%. Moreover, in the assay with triglycerides [3], the TRIGLYCERIDES decrease is recorded as 0-10%. In addition, in the assay with HDL cholesterol [4], the “effect on HDL cholesterol” value is listed as “raise HDL cholesterol”. In addition, in the assay with LDL cholesterol [5], the “effect on LDL cholesterol” value was “decrease LDL cholesterol modestly”. For the same molecule, in the assay on LDL cholesterol [6], the LDL result is “NC”.
